Measurements taken from ChEMBL document CHEMBL1201862, “PubChem BioAssay data set” (2004).
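A five-concentration, 48-hour dose response in 96-well plates underlies each endpoint, interpolated linearly between surrounding concentrations. Here, GI50 denotes the concentration required for 50% inhibition of growth.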 The source made the active and inactive calls. Rule as the data show it: active = GI50 up to about 1.1 µM and inactive = higher.

How the values were obtained:
Assay in all cases: DTP human tumour cell line panel, 48 h
UACC-257 = test system: UACC-257
RXF 393 = test system: RXF 393
SF-539 = test system: SF-539
SW-620 = test system: SW-620
OVCAR-8 = test system: OVCAR-8
DMS-273 = test system: DMS-273
EKVX = test system: EKVX
786-0 = test system: 786-0
XF498 = test system: XF498
A549 = test system: A549
HCT-116 = test system: HCT-116
SK-MEL-28 = test system: SK-MEL-28
SNB-75 = test system: SNB-75
SK-OV-3 = test system: SK-OV-3
NCI-H522 = test system: NCI-H522
HT-29 = test system: HT-29
NCI-H226 = test system: NCI-H226
TK-10 = test system: TK-10

Measured: GI50

O=c1[nH]c(C2CCCCC2)nc2c(Cl)cccc12
inactive: UACC-257 > 100 µM | RXF 393 > 100 µM | SF-539 > 100 µM | SW-620 > 100 µM | OVCAR-8 > 100 µM | DMS-273 > 100 µM | EKVX 26.1 µM | 786-0 > 100 µM | XF498 > 100 µM | A549 > 100 µM | HCT-116 > 100 µM | SK-MEL-28 > 100 µM | SNB-75 > 100 µM | SK-OV-3 > 100 µM | NCI-H522 > 100 µM | HT-29 > 100 µM | NCI-H226 > 100 µM | TK-10 > 100 µM

O=c1[nH]c(=O)n(C2CC(O)C(CO)O2)cc1C(F)(C(F)(F)F)C(F)(F)F (stereo not drawn)
inactive: UACC-257 > 100 µM | RXF 393 > 100 µM | SF-539 > 100 µM | SW-620 > 100 µM | OVCAR-8 > 100 µM | DMS-273 > 100 µM | EKVX > 100 µM | 786-0 > 100 µM | XF498 > 100 µM | SK-MEL-28 > 100 µM | SNB-75 > 100 µM | SK-OV-3 > 100 µM | NCI-H522 45.2 µM | HT-29 > 100 µM | NCI-H226 > 100 µM | TK-10 > 100 µM

CCCCN(CC)C(=O)C(=O)Cc1nc2ccc(C(=O)c3ccccc3)cc2nc1O
inactive: UACC-257 > 100 µM | RXF 393 25.5 µM | SF-539 98.9 µM | SW-620 > 100 µM | OVCAR-8 > 100 µM | DMS-273 53 µM | EKVX > 63.2 µM | 786-0 > 100 µM | A549 > 100 µM | HCT-116 > 100 µM | SK-MEL-28 73.3 µM | SNB-75 25.8 µM | SK-OV-3 85.1 µM | NCI-H522 20.3 µM | HT-29 57.5 µM | NCI-H226 > 67.9 µM | TK-10 > 84.5 µM

COC(=O)OCC1OC(N2C(=O)NC(=O)C(I)C2N=[N+]=[N-])CC1OC(=O)OC (stereo not drawn)
inactive: UACC-257 > 100 µM | RXF 393 > 100 µM | SF-539 > 100 µM | SW-620 > 100 µM | OVCAR-8 > 100 µM | DMS-273 > 100 µM | 786-0 > 100 µM | XF498 > 100 µM | A549 > 100 µM | HCT-116 > 100 µM | SK-MEL-28 > 100 µM | SNB-75 > 100 µM | SK-OV-3 > 100 µM | NCI-H522 > 100 µM | HT-29 > 100 µM | NCI-H226 > 100 µM | TK-10 > 100 µM

CN(C)c1ccc(/C=c2\sc3nnc(-c4ccco4)n3c2=O)cc1
inactive: UACC-257 16.7 µM | RXF 393 > 100 µM | SF-539 > 100 µM | SW-620 > 100 µM | OVCAR-8 > 100 µM | DMS-273 > 100 µM | EKVX > 100 µM | 786-0 > 100 µM | XF498 > 100 µM | A549 > 100 µM | HCT-116 > 100 µM | SK-MEL-28 > 100 µM | SNB-75 31.6 µM | SK-OV-3 > 100 µM | NCI-H522 > 100 µM | NCI-H226 > 100 µM | TK-10 > 100 µM

O=C1CSc2ccncc2N1
inactive: UACC-257 > 100 µM | RXF 393 > 100 µM | SF-539 > 100 µM | SW-620 > 100 µM | OVCAR-8 > 100 µM | DMS-273 > 100 µM | EKVX > 100 µM | 786-0 > 100 µM | XF498 > 100 µM | A549 > 100 µM | HCT-116 > 100 µM | SK-MEL-28 > 100 µM | SNB-75 > 100 µM | HT-29 > 100 µM | NCI-H226 > 100 µM | TK-10 > 100 µM

COc1nc(NC2OC(COC(C)=O)C(OC(C)=O)C(OC(C)=O)C2OC(C)=O)c2c(OC(C)=O)c(C)c(=O)oc2n1 (stereo not drawn)
inactive: UACC-257 > 100 µM | RXF 393 > 100 µM | SF-539 > 100 µM | SW-620 > 100 µM | OVCAR-8 > 100 µM | EKVX > 100 µM | 786-0 > 100 µM | XF498 > 100 µM | A549 > 100 µM | HCT-116 > 100 µM | SNB-75 > 100 µM | SK-OV-3 > 100 µM | HT-29 > 100 µM | NCI-H226 > 100 µM | TK-10 > 100 µM

OCC(CO)C1c2cccc3ccc4cccc1c4c23
inactive: UACC-257 > 100 µM | RXF 393 > 100 µM | SF-539 > 100 µM | SW-620 > 100 µM | OVCAR-8 > 100 µM | DMS-273 > 100 µM | EKVX 87.9 µM | 786-0 > 100 µM | XF498 > 100 µM | A549 > 100 µM | HCT-116 > 100 µM | SK-MEL-28 > 100 µM | SNB-75 54.1 µM | SK-OV-3 > 100 µM | HT-29 > 100 µM | NCI-H226 67.5 µM | TK-10 > 100 µM
